Test results published in patent publication US20230097475A1, “TREATMENT FOR CHONDRODYSTROPHIA” (Kyoto University, priority 2020, published 2023).

What was measured:
[1] = tested on: TD1-iPS cells and ACH-iPS cells; test: Drug efficacy in disease iPS cell models, chondrocyte differentiation; format: cell-based, human
Source text: iPS cell lines were established from dermal fibroblasts of patients with thanatophoric dysplasia type I (TD1, R248C) and cartilage intangibility (ACH, […]), and dermal fibroblasts of healthy individuals, and induced their differentiation into chondrocytes. Cartilage tissue was formed from healthy iPS cells, whereas a cartilage component was reduced in tissue induced from TD1-iPS cells and tissue induced from ACH-iPS cells (Yamashita et al., Nature, 2014, 513 (7519): 507-11).
Rosuvastatin was used as a positive control. As evaluation items, tissue section staining (Safranin staining), and the expression of mRNAs of COL2A1 and Aggrecan (ACAN) were used as indexes. For testing significance, an unpaired test was conducted. In FIG. 13, * indicates p<0.05.

FGFR3 ACH mice [2] = test: Bone extension effect using achondroplasia model mouse (Example 2); format: in vivo
Protocol: (§1) FGFR3 ACH mice (Naski, M. C. et al., Development, 1998, 125(24): 4977-88; hereinbelow, simply referred to as ACH mice) were used. FVB strain ACH mice were subjected to artificial insemination to produce a large number of F1 hybrid mice. Genomic DNA was then extracted, and the gene type was determined by a PCR method. […] Mice at the age of 43 days were euthanized, and the weight measurement and the bone (femur, tibia, and ulna) length measurement by X-ray photographing were performed. The X-ray photographing was performed using a Faxitron X-Ray DX-50 (AcroBio Corporation), and the measurements were performed with Image J. For testing significance, a Dunnett's multiple comparison test was conducted. In FIGS. 1 to 5, * indicates p<0.05, ** indicates p<0.01, and *** indicates p<0.001.
Subsequently, the femur was isolated from the mice after dosing. The cartilage growth plate was then stained with safranin O, and the length thereof was measured. The average width of the growth plate of ACH mice was 148.3.

FGFR3 ACH mice [3] = test: Bone extension effect using achondroplasia model mice, male and female (Example 3); format: in vivo; settings: male 1, 3 or 10 mg/kg, female 1, 3 or 6 mg/kg, measured at 43 days old, vs vehicle group
Protocol: as §1
For testing significance, a Dunnett's multiple comparison test was conducted. In FIGS. 6 to 11, * indicates p<0.05, ** indicates p<0.01, *** indicates p<0.001, and **** indicates p<0.0001.

[4] = tested on: FGFR3^Y367C/+ mouse model of achondroplasia; settings: reported in NPL 6; cited from earlier work
mutant FGFR3G^380R/+ = settings: at 50 nM; cited from earlier work
[5] = 1 nM, 10th week of differentiation induction, vs cells free of Compound 1, FIG. 13

SMILES | Safranin staining of glycosaminoglycans (cartilage extracellular matrix) ([1]; 1 nM added at each medium change from day 3, analysis at 10th week of differentiation induction, FIG. 12) | Expression of mRNA of ACAN [1, 5] | Expression of mRNA of COL2A1 [1, 5] | Average width of the femur growth plate (safranin O staining) (FGFR3 ACH mice [2]; ACH mice after dosing, dose not stated, ACH mice without compound 148.3, FIG. 4) | Bone extension effect (femur, tibia, ulna length; growth plate cartilage thickness) (FGFR3 ACH mice [2]; ACH mice, 0.1, 1 or 3 mg/kg intraperitoneal once a day, 5 days on 2 days off, age 21 to 42 days, measured at 43 days old, vs vehicle group) | Bone extension effect (femur, tibia, ulna length) (FGFR3 ACH mice [3]) | Treatment effect on mouse model of achondroplasia [4] | Kinase inhibitory effect (mutant FGFR3G^380R/+)
C=CC(=O)N1CC[C@H](n2nc(C#Cc3cc(OC)cc(OC)c3)c3c(N)ncnc32)C1 [Compound 1, 1-[(3S)-3-[4-amino-3-[2-(3,5-dimethoxyphenyl)ethynyl]-1H-pyrazolo[3,4-d]pyrimidin-1-yl]-1-pyrrolidinyl]-2-propen-1-one] | positive safranin staining image was observed | increased | increased | 206.4 μm | concentration-dependent bone extension effect was observed | concentration-dependent bone extension effect was observed |  | 
CCN1CCN(c2ccc(Nc3cc(N(C)C(=O)Nc4c(Cl)c(OC)cc(OC)c4Cl)ncn3)cc2)CC1 [NVP-BGJ398] |  |  |  |  |  |  | has a treatment effect | has a kinase inhibitory effect
